Among the data in ChEMBL document CHEMBL5236624, “Synthesis, Characterization, and Application of Muscarinergic M3 Receptor Ligands Linked to Fluorescent Dyes” (J Med Chem, 2022) are Ki and Selectivity ratio values, retold here.

The Ki is the equilibrium dissociation constant of an inhibitor or competing ligand from its target.

For experiment [1], the target named is T1, Muscarinic acetylcholine receptor M2 (Homo sapiens, UniProt P08172).
T1 sequence (P08172 whole entry): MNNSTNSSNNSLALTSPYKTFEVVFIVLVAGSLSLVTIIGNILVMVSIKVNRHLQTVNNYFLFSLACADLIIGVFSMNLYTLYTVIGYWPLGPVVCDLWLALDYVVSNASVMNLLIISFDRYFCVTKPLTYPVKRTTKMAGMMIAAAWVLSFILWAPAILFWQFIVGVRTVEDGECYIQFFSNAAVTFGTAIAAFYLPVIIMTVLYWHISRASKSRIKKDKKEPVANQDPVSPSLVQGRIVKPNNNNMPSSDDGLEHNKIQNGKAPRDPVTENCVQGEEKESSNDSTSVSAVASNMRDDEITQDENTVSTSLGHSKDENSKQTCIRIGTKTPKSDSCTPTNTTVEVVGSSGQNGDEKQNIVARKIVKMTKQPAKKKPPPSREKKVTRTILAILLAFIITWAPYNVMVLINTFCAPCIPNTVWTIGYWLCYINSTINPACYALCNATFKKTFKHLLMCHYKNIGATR
Put plainly: Displacement of [3H]N-methylscopolamine from human muscarinic M2 receptor expressed in human HEK293T cell membranes by radioligand competition binding based analysis. Also noted: species or system Cell membrane. (In general: In a radioligand displacement assay an active substance lowers the binding of a labelled ligand.)

Experiment [2] concerns the target T2, Muscarinic acetylcholine receptor M5 (Homo sapiens, UniProt P08912).
T2 sequence (P08912 whole entry): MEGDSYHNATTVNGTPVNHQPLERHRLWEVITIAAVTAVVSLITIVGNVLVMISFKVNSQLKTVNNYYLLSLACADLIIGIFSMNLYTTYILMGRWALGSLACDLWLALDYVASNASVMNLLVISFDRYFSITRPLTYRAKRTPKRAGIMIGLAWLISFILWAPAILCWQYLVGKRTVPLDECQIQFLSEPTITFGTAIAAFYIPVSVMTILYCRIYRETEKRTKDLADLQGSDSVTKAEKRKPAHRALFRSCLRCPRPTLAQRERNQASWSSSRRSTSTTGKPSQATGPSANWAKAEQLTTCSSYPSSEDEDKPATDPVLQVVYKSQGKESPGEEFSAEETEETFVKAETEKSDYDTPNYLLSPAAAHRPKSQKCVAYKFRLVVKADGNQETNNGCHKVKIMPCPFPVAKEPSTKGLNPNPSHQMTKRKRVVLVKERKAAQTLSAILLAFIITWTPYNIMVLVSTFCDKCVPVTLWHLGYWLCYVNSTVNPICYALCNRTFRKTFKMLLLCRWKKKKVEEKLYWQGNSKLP
Put plainly: Displacement of [3H]N-methylscopolamine from human muscarinic M5 receptor expressed in human HEK293T cell membranes by radioligand competition binding based analysis. On the set-up: species or system Cell membrane.

Experiment [3] is filed under the species Homo sapiens. Briefly: Selectivity ratio, Ki for displacement of [3H]N-methylscopolamine from human muscarinic M5 receptor expressed in human HEK293T cell membranes to Ki for displacement of [3H]N-methylscopolamine from human muscarinic M3 receptor expressed in human HEK293T cell membranes.
For experiment [4], the target named is T3, Muscarinic acetylcholine receptor M4 (Homo sapiens, UniProt P08173).
T3 sequence (P08173 whole entry): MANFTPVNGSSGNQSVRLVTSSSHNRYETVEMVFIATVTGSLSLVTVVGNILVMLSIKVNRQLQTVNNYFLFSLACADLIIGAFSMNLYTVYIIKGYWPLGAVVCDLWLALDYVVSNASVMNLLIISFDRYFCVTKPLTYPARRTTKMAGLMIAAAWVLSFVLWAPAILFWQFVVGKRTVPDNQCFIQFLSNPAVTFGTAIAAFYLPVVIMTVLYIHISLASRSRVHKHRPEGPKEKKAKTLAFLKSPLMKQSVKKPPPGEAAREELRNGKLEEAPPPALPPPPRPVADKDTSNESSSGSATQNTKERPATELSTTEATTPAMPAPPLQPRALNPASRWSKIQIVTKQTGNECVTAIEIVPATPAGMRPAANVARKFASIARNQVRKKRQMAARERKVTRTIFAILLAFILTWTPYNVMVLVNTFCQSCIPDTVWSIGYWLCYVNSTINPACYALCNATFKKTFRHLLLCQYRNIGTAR
Briefly: Displacement of [3H]N-methylscopolamine from human muscarinic M4 receptor expressed in human HEK293T cell membranes by radioligand competition binding based analysis. On the set-up: species or system Cell membrane.

Experiment [5] addresses T4, Muscarinic acetylcholine receptor M1 (Homo sapiens, UniProt P11229).
T4 sequence (P11229 whole entry): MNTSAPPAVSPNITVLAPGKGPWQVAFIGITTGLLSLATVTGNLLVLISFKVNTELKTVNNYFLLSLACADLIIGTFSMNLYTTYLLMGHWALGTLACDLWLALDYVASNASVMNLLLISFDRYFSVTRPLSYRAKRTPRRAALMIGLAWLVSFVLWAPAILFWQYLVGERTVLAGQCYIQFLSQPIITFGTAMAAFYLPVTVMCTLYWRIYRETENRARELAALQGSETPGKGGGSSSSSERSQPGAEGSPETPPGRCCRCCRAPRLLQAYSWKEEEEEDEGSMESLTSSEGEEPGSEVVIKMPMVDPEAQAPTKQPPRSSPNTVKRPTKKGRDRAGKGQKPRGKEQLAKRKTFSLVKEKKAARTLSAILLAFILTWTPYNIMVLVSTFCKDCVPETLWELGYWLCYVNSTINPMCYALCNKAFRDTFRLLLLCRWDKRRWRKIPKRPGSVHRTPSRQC
Put plainly: Displacement of [3H]N-methylscopolamine from human muscarinic M1 receptor expressed in human HEK293T cell membranes by radioligand competition binding based analysis. Also noted: species or system Cell membrane.

Experiment [6] is filed under the species Homo sapiens. Put plainly: Selectivity ratio, Ki for displacement of [3H]N-methylscopolamine from human muscarinic M4 receptor expressed in human HEK293T cell membranes to Ki for displacement of [3H]N-methylscopolamine from human muscarinic M3 receptor expressed in human HEK293T cell membranes.
In experiment [7] the target is Muscarinic acetylcholine receptor M3 (Homo sapiens, UniProt P20309). Briefly: Displacement of [3H]N-methylscopolamine from human muscarinic M3 receptor expressed in human HEK293T cell membranes by radioligand competition binding based analysis. On the set-up: species or system Cell membrane.
Muscarinic acetylcholine receptor M3, sequence (P20309 whole entry): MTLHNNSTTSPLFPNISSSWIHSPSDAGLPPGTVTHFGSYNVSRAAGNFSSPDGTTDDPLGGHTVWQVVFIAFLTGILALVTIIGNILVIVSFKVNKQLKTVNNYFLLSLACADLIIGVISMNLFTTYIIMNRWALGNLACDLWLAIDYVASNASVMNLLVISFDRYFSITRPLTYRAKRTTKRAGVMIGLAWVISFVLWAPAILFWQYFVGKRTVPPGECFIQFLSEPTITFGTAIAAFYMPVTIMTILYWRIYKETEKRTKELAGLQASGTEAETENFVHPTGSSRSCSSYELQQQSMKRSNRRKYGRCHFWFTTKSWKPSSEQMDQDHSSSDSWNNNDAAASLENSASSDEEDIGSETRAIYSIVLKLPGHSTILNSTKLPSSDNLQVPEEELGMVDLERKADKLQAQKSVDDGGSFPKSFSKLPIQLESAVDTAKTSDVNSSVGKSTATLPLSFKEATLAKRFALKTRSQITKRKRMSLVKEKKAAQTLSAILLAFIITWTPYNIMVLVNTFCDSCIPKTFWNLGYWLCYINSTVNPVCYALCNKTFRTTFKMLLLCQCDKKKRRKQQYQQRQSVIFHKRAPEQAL

Regarding `CN1/C(=C/C=C/C=C/C2=[N+](CCCCCC(=O)NCCCCCCN3CCC(OC(=O)Nc4ccc(F)cc4-c4ccc(F)c(Cl)c4)CC3)c3ccccc3C2(C)C)C(C)(C)c2ccccc21`, the Ki in experiment [1] was 5.9 nM; in experiment [2] it was 40 nM; in experiment [4] it was 5.4 nM; in experiment [5] it was 2.7 nM; in experiment [7] it was 2.7 nM. The Selectivity ratio in experiment [3] was 15; in experiment [6], 2.
Take `NCCCCCCN1CCC(COC(=O)Nc2ccc(F)cc2-c2ccc(F)c(Cl)c2)CC1`: the Ki in experiment [1] was determined as 1.4 nM; in experiment [5], 0.43 nM; in experiment [7], 0.081 nM.
In the same order, the values of `C#CCCCCCN1CCC(COC(=O)Nc2ccc(F)cc2-c2ccc(F)c(Cl)c2)CC1` are 13 nM, 1.3 nM and 0.77 nM.
In the same order, the values of `C#CCCCCCN1CCC(OC(=O)Nc2ccc(F)cc2-c2ccc(F)c(Cl)c2)CC1` are 23 nM, 2 nM and 1.8 nM.
As for `CN(C)c1ccc2c(-c3ccc(-c4cn(CCCCCn5cc(CCCCCCN6CCC(OC(=O)Nc7ccc(F)cc7-c7ccc(F)c(Cl)c7)CC6)nn5)nn4)cc3C(=O)[O-])c3ccc(=[N+](C)C)cc-3oc2c1`, the Ki in experiment [1] was 9.8 nM; in experiment [2] it was 11 nM; in experiment [4], 3.8 nM; in experiment [5] it was 2 nM; in experiment [7], 12 nM. The Selectivity ratio in experiment [3] is 0.92; in experiment [6], 0.32.
In the case of `O=C(Nc1ccc(F)cc1-c1ccc(F)c(Cl)c1)OC1CCNCC1`, the values for the Ki in experiment [1], in experiment [5] and in experiment [7] were 92 nM, 2.8 nM and 4.3 nM, respectively.
As to `C#CCCCCCCN1CCC(COC(=O)Nc2ccc(F)cc2-c2ccc(F)c(Cl)c2)CC1`, the results for the Ki in experiment [1], in experiment [5] and in experiment [7] were 9.3 nM, 0.64 nM and 0.32 nM, respectively.
In the case of `CN(C)c1ccc2c(-c3ccc(-c4cn(CCCCCn5cc(CCCCCN6CCC(OC(=O)Nc7ccc(F)cc7-c7ccc(F)c(Cl)c7)CC6)nn5)nn4)cc3C(=O)[O-])c3ccc(=[N+](C)C)cc-3oc2c1`, the Ki worked out at 26 nM in experiment [1]; 9.7 nM in experiment [2]; 3.3 nM in experiment [4]; 4.1 nM in experiment [5]; 6.8 nM in experiment [7]. The Selectivity ratio in experiment [3] worked out at 1.4; in experiment [6] it was 0.49.
As for `CN1/C(=C/C=C/C=C/C2=[N+](CCCCCC(=O)NCCCNCCCCCCN3CCC(COC(=O)Nc4ccc(F)cc4-c4ccc(F)c(Cl)c4)CC3)c3ccccc3C2(C)C)C(C)(C)c2ccccc21`, the Ki amounted to 9.9 nM in experiment [1]; 18 nM in experiment [2]; 1.7 nM in experiment [4]; 1.9 nM in experiment [5]; 7.7 nM in experiment [7]. In addition, the Selectivity ratio in experiment [3] amounted to 2.3; in experiment [6], 0.22.
As for `NCCCCCCN1CCC(OC(=O)Nc2ccc(F)cc2-c2ccc(F)c(Cl)c2)CC1`, the figures for the Ki in experiment [1], in experiment [5] and in experiment [7] were 28 nM, 1.9 nM and 2.6 nM, respectively.
Take `NCCCCCCCCN1CCC(OC(=O)Nc2ccc(F)cc2-c2ccc(F)c(Cl)c2)CC1`: the Ki in experiment [1] came out at 1.7 nM; in experiment [5], 0.34 nM; in experiment [7] it was 0.28 nM.
Turning to `CN1/C(=C/C=C/C=C/C2=[N+](CCCCCC(=O)NCCCCCCN3CCC(COC(=O)Nc4ccc(F)cc4-c4ccc(F)c(Cl)c4)CC3)c3ccccc3C2(C)C)C(C)(C)c2ccccc21`, the Ki in experiment [1] amounted to 6.7 nM; in experiment [2] it was 6.9 nM; in experiment [4], 0.9 nM; in experiment [5], 2.3 nM; in experiment [7], 6.3 nM. Moreover, the Selectivity ratio in experiment [3] is 1.1; in experiment [6] it was 0.14.
Take `NCCCCCCCCN1CCC(COC(=O)Nc2ccc(F)cc2-c2ccc(F)c(Cl)c2)CC1`: the Ki came to 0.92 nM in experiment [1], 0.35 nM in experiment [5] and 0.15 nM in experiment [7].
On to `CN1/C(=C/C=C/C=C/C2=[N+](CCCCCC(=O)NCCCCCCCCN3CCC(OC(=O)Nc4ccc(F)cc4-c4ccc(F)c(Cl)c4)CC3)c3ccccc3C2(C)C)C(C)(C)c2ccccc21`, for which the results for the inhibition constant Ki in experiment [1], in experiment [4] and in experiment [5] were 0.62 nM, 0.86 nM and 1 nM, respectively. Besides, the Selectivity ratio in experiment [6] is 1.4.
As to `CN1/C(=C/C=C/C=C/C2=[N+](CCCCCC(=O)NCCCCCCCCN3CCC(COC(=O)Nc4ccc(F)cc4-c4ccc(F)c(Cl)c4)CC3)c3ccccc3C2(C)C)C(C)(C)c2ccccc21`, the Ki in experiment [1] is 1.1 nM; in experiment [2], 2.6 nM; in experiment [4] it was 0.56 nM; in experiment [5], 1.8 nM; in experiment [7], 3.2 nM. The Selectivity ratio in experiment [3] was 0.81; in experiment [6], 0.18.
For `C#CCCCCCCN1CCC(OC(=O)Nc2ccc(F)cc2-c2ccc(F)c(Cl)c2)CC1`, the Ki in experiment [1] stood at 7.9 nM; in experiment [5], 0.63 nM; in experiment [7], 1 nM.
As to `CN(C)c1ccc2c(-c3ccc(-c4cn(CCCCCn5cc(CCCCCN6CCC(COC(=O)Nc7ccc(F)cc7-c7ccc(F)c(Cl)c7)CC6)nn5)nn4)cc3C(=O)[O-])c3ccc(=[N+](C)C)cc-3oc2c1`, the Ki in experiment [1] turned out to be 26 nM; in experiment [2], 12 nM; in experiment [4], 2.6 nM; in experiment [5] it was 3.8 nM; in experiment [7], 3.1 nM. Besides, the Selectivity ratio in experiment [3] came to 3.9; in experiment [6], 0.84.
